# Source: patent US20070142392A1, “Uses of rifamycins” (ActivBiotics, Inc., priority 2005, published 2007)
# Where two headings read alike, the source gives them in different places.
# Experiments:
# S. aureus ATCC29213 [1] = test: minimal bactericidal concentration for logarithmic phase growth (MBClog); assay type: cell-based
# Experimental: (§1) FIG. 2A is a schematic illustration showing the peak drug concentration of Compound 86 (1.13 μg/ml) in cage fluid from non-infected animals after single dose of 12.5 mg/kg. […] In this medium, bacterial counts remained stable in the absence of antibacterial agents for >36 hours.
# (§2) In this medium, bacterial counts remained stable in the absence of antibacterial agents for >36 hours.
# (§3) To understand the relative efficacy of peak drug concentration, it is compared to the minimal inhibitory concentration (MIC), the minimal bactericidal concentration for logarithmic phase growth (MBClog) and the MBCstat. […] The MBClog was defined as antimicrobial concentration that reduced the original inoculum by […] after 24 hour incubation (i.e. 3 log 10 CFU/ml), as described in the Manual of Clinical Microbiology. The MBCstat was determined as described in Example 1.
# E. faecalis = test: MIC values, E. faecalis (Tables 1-4); assay type: cell-based
# S. aureus [2] = test: Foreign-body (tissue cage) infection model, antimicrobial treatment; assay type: in vivo, guinea pigs; conditions: for Cure rate of removed cages: cages removed day 9; for Mean log10 CFU/ml ± SD in aspirated cage fluid, during treatment / no. culture negative/total no., cage fluid during treatment: day 4; for Mean log10 CFU/ml ± SD in aspirated cage fluid, after treatment / no. culture negative/total no., cage fluid after treatment: day 9
# Experimental: For pharmacokinetic studies, non-infected animals were used. […] Antibiotics were administered intraperitoneally every 12 hours for four days (total eight doses). […] The cure rate is the fraction of cages in which the infection was eradicated. […] Following incubation, 50 μl of the TSB mixture was plated on blood agar plates to determine the presence of bacteria. A foreign-body infection model in guinea pigs was used for in vivo analysis of antimicrobials as described in Example 2, however in this example the animals were infected. […] Antibiotics were administered intraperitoneally every 12 hours for four days (total eight doses).
# S. aureus [3] = test: MIC values, S. aureus (Tables 1-4); assay type: cell-based
# S. pneumo. = test: MIC values, S. pneumo. (Tables 1-4); assay type: cell-based
# H. flu = assay type: cell-based
# [4] = guinea pig, in vivo, ip
# Description: (§4) For pharmacokinetic studies, non-infected animals were used. […] Teflon tissue cages were implanted into the flanks of guinea pigs. For pharmacokinetic studies, non-infected animals were used.
# E. coli = test: MIC values, E. coli (Tables 1-4); assay type: cell-based
# S. aureus ATCC29213 [5] = test: MIC by broth dilution method; assay type: cell-based; conditions: S. aureus ATCC29213, inoculum 5×10^5 CFU/ml
# Experimental: as §1, §2, §3
# S. aureus [6] = test: minimal bactericidal concentration in the stationary growth phase (MBCstat); assay type: cell-based; conditions: Staphylococcus aureus, 1% glucose PBS pH 7.4 with 4% Muller Hinton Broth
# Experimental: as §1, §2
# The minimal bactericidal concentration in the stationary growth phase (MBCstat) was determined by using overnight bacterial cultures which were centrifuged and resuspended in medium containing 1% glucose supplemented phosphate buffered saline (PBS) pH 7.4 with 4% Muller Hinton Broth (Zimmerli et al., J Antimicrob. Chemother. 33:959-967 (1994)). In this medium, bacterial counts remained stable in the absence of antibacterial agents for >36 hours.
# in vivo = conditions: albino, guinea pig, ip, 12.5 mg/kg
# Description: as §4
smiles,measurement,setting,value
CO[C@H]1/C=C/O[C@@]2(C)Oc3c(C)c(O)c4c(=O)c(c5oc6cc(N7CCN(C)CC7)cc(O)c6nc-5c4c3C2=O)NC(=O)/C(C)=C\C=C\[C@H](C)[C@H](O)[C@@H](C)[C@@H](O)[C@@H](C)[C@H](O)[C@@H]1C [Compound 86],MBClog,S. aureus ATCC29213 [1]; 24 hour incubation,0.008 μg/ml
same,MIC E. faecalis,E. faecalis,0.015 µg/mL
same,Cure rate of removed cages,S. aureus [2]; 3 mg/kg/12 h i.p.,8% (1/12)
same,"Mean log10 CFU/ml ± SD in aspirated cage fluid, during treatment",S. aureus [2]; 3 mg/kg/12 h i.p.,4.76 ± 0.51 log10 CFU/ml
same,"no. culture negative/total no., cage fluid during treatment",S. aureus [2]; 3 mg/kg/12 h i.p.,2/12
same,"Mean log10 CFU/ml ± SD in aspirated cage fluid, after treatment",S. aureus [2]; 3 mg/kg/12 h i.p.,2.77 ± 0.53 log10 CFU/ml
same,"no. culture negative/total no., cage fluid after treatment",S. aureus [2]; 3 mg/kg/12 h i.p.,4/12
same,Cure rate of removed cages,S. aureus [2]; 12.5 mg/kg/12 h i.p.,58%
same,Cure rate of removed cages,"S. aureus [2]; 12.5 mg/kg/12 h i.p., listed as Cpd 86",58% (7/12)
same,"Mean log10 CFU/ml ± SD in aspirated cage fluid, during treatment",S. aureus [2]; 12.5 mg/kg/12 h i.p.,3.24 ± 0.27 log10 CFU/ml
same,"no. culture negative/total no., cage fluid during treatment",S. aureus [2]; 12.5 mg/kg/12 h i.p.,5/12
same,"Mean log10 CFU/ml ± SD in aspirated cage fluid, after treatment",S. aureus [2]; 12.5 mg/kg/12 h i.p.,1.57 ± 0.53 log10 CFU/ml
same,"no. culture negative/total no., cage fluid after treatment",S. aureus [2]; 12.5 mg/kg/12 h i.p.,10/12
same,MIC S. aureus,S. aureus [3],0.002 µg/mL
same,MIC S. pneumo.,S. pneumo.,0.00012 µg/mL
same,MIC H. flu,H. flu,0.25 µg/mL
same,Cmin,[4]; 3 mg/kg,40 ± 10 ng/mL
same,Cmax (peak drug concentration),[4]; 12.5 mg/kg,1130 ng/mL
same,Cmin,[4]; 12.5 mg/kg,140 ± 110 ng/mL
same,Tmax,[4]; 12.5 mg/kg,8 h
same,MIC E. coli,E. coli,4 µg/mL
same,minimal inhibitory concentration (MIC),S. aureus ATCC29213 [5],0.002 µg/mL
"CO[C@H]1/C=C/O[C@@]2(C)Oc3c(C)c(O)c4c(O)c(c(/C=N/N5CCN(C)CC5)c(O)c4c3C2=O)NC(=O)/C(C)=C\C=C\[C@H](C)[C@H](O)[C@@H](C)[C@@H](O)[C@@H](C)[C@H](OC(C)=O)[C@@H]1C [Rifampin, rifampin, reference compound]",MBC,"S. aureus ATCC29213 [1]; Staphylococcus aureus, ATCC29213, 24 hour incubation",0.8 µg/mL
same,"Mean log10 CFU/ml ± SD in aspirated cage fluid, during treatment",S. aureus [2]; 12.5 mg/kg/12 h i.p.,3.68 ± 0.59 log10 CFU/ml
same,"no. culture negative/total no., cage fluid during treatment",S. aureus [2]; 12.5 mg/kg/12 h i.p.,11/24
same,"Mean log10 CFU/ml ± SD in aspirated cage fluid, after treatment",S. aureus [2]; 12.5 mg/kg/12 h i.p.,1.43 ± 0.28 log10 CFU/ml
same,"no. culture negative/total no., cage fluid after treatment",S. aureus [2]; 12.5 mg/kg/12 h i.p.,19/24
same,MBC,S. aureus [6],3.6 µg/mL
same,AUC,in vivo,4560 ng·h/mL
same,Cmax,in vivo,980 ng/mL
same,Tmax,in vivo,2 h
same,concentration at 12 h,in vivo,140 ± 90 ng/mL
same,Tmax,[4]; 12.5 mg/kg,two
same,MIC,"S. aureus ATCC29213 [5]; Staphylococcus aureus, read-out: minimal inhibitory concentration (MIC)",0.016 µg/mL
